Source: US20090286808A1, “Opsin Stabilizing Compounds and Methods of Use” (University of Florida Research Foundation, Inc., priority 2006, published 2009)
“Also recorded” adds a separate entry of the source. Where two headings read alike, the source gives them in different places. Blank lines part the entries; values can stand above or below the compound they belong to.

What was measured:
P347S (Class I) mice = settings: cited from earlier work
T17M (Class II) mice = settings: cited from earlier work
P23H opsin [1] = target: T1, P23H opsin (Bos taurus, UniProt P02699, P23H); test: Yield of folded P23H rhodopsin purified from P23H opsin expressing HEK293 cells, by spectrophotometry; assay type: cell-based, bovine; settings: for % Increase in P23H Yield (Table 1): compound concentration 100 μM, compared to control; for increase in P23H pigment over control: compound present during P23H opsin expression, 48 hours, β-ionone 10 μM; for increase in the yield of folded P23H rhodopsin: P23H opsin expressing cells treated with compound, versus no compound; for yield of folded P23H rhodopsin, in words: versus absence of the compound
T1 construct: expressed in transfected cells
Description: Wild-type (WT) and P23H expressing stable cell lines were generated in a commercially available cloning system, the Flp-In T-Rex System™ (Invitrogen). The stable cells were grown in DMEM high glucose media supplemented with 10% (vlv) fetal bovine serum, antibiotic antimycotic solution, […] blasticidin and hygromycin at 37° C. in presence of 5% CO2. For all the experiments the cells were allowed to reach confluence and were induced with 1 μg/ml tetracycline after change of media and then compounds were added. The plates were incubated for 48 h after which the cells were harvested.
For purification of rhodopsin 100 μM […] was added to a confluent plate of P23H cells after induction. […] Rhodopsin purification was essentially as described below for opsin purification with minor modifications. Briefly, the cells were harvested and washed with PBS followed by incubation with 50 μM 11-cis-retinal for 1.5 h at 4° C. The cells were then washed three times with PBS to remove excess retinal. Lysis, column binding and elution from the column were same as in case of opsin purification.
Stable cell lines expressing the P23H opsin were generated using Flp-In T-Rex system (Invitrogen) in HEK293 cell line. To create plasmids for constructing stable cell lines, an EcoRI-NotI fragment from the wild-type or P23H mutant synthetoc bovine opsin gene in pMT4 (see Kaushal et al., Biochemistry, Vol. 33, pp. 6121-6128 (1994) was combined with the large EcoRI-NotI fragment of pcDNA5/FRT/TO (Invitrogen). The resulting plasmids contain opsin under the control of a tetracycline-inducible human cytomegalovirus promoter and a flippase recognition sequence (FRT) for site sepecific recombination at the unique chromosomal FRT site of HEK293 Flp-In T-Rex. The opsin sequence in these plasmids was verified by PCR cycle sequencing. To construct stable cell lines, HEK293 Flp-In T-Rex cells were co-transfected with the flippase vector pOG44 (from Invitrogen) and the pcDNA5/FRT/TO vector or its derivatives containing the opsin gene. Stable recombinants were obtained by selecting for cells expressing resistance to hygromycin due to plasmid recombination at the FRT site. After the initial selection, the stable cell lines were routinely grown in the same media as HEK293 Flp-In T-rex, except that […].
The stable cells were grown in DMEM high glucose media supplemented with 10% (v/v) fetal bovine serum, antibiotic/antimycotic solution, 5 μg/ml blasticidin and hygromycin at 37° C. in presence of 5% CO2. For all the experiments the cells were allowed to reach confluence and were induced with 1 μg/mi tetracycline after change of media and then compounds were added. The plates were incubated for 48 h after which the cells were harvested.
The effect of the compounds on P23H rhodopsin yield was assessed by purifying and spectrophotormetrically determining the yield. After 48 hours of induction and treatment with compounds the cells were harvested and rhodopsin purified essentially as described in Noorwez et al. (2004). For purification of rhodopsin 100 μM NCI-45012 was added to a confluent plate of P23H cells after induction. […] Rhodopsin purification was essentially as described earlier for opsin purification with minor modifications. Briefly, the cells were harvested and washed with PBS followed by incubation with 50 μM 11-cis-retinal for 1.5 hours at 4° C., The cells were then washed three times with PBS to remove excess retinal. Lysis, column binding and elution from the column were the same as for opsin purification.
Compounds identified by computational modeling (see Example 1) were screened as described above. The effect of compounds on the yield of mutant rhodopsin was determined by spectrophotometry. […]

P23H opsin [2] = target: T1, P23H opsin; assay type: cell-based, bovine
Description: (§1) The P23H opsin producing cells were grown in 6-well plates and induced to produce P23H opsin. The DMSO solutions of the NCI compounds were individually added to separate wells at a final concentration of 100 μM. After incubation for 48 h cells were collected and washed with PBS. The cells were then lysed in PBSD by constantly rotating for 1 h at 4° C. The tubes were spun at 36000 rpm for […] and supernatant collected in fresh tubes. Total protein was quantified using a commercially available assay system, the DC protein assay (Biorad). Equal amounts of protein (10 μg) from different samples was loaded on 4-20% SDS polyacrylamide gels and total opsin quantified by western blotting.
as §1, with “the test” for “the NCI”, “1 hour” for “1 h”, “at 36,000” for “at 36000”, “using” for “using a commercially available assay system, the”, “blotting. Proteins were separated on SDS-PAGE gels and western blotted as described in Noorwez et at (2004).” for “blotting.”
Thus, a higher fraction of P23H molecules attain a stable conformation. […] This might also explain the difference in the degree of rescue obtained with these two pharmacological chaperones.

WT opsin [3] = target: T2, WT opsin (Bos taurus, UniProt P02699); assay type: biochemical, bovine; settings: compound without 11-cis-retinal chromophore, in vitro
Description: The cells were washed after 48 h and rhodopsin purified without treating the cells with 11-cis-retinal under conditions that yield only folded rhodopsin (Noorwez et al. (2004)).

P23H opsin [4] = target: T1, P23H opsin; test: Yield of folded P23H rhodopsin purified from P23H opsin expressing HEK293 cells, by spectrophotometry; assay type: cell-based, bovine; settings: 48 h, no 11-cis-retinal
WT opsin [5] = target: T2, WT opsin; test: Opsin regeneration and retinal competition: rate of 500 nm pigment formation of purified WT opsin with 11-cis-retinal; assay type: biochemical, bovine
Description: WT opsin producing cells were grown in 10 cm culture plates and induced for opsin production. After 48 hour of induction the cells were harvested and washed with PBS (10 mM sodium phosphate, 130 mM NaCl, pH 7.2). The cells were lysed in PBSD (PBS containing 1.0% DM and 1× protease inhibitor cocktail) for 1 hour and the lysate was added to 1D4 coupled sepharose beads and incubated for 1 hour at 4° C. The beads were washed 5 times in PBSD and twice with 10 mM sodium phosphate buffer containing 0.5% DM, pH 6.0. The bound WT opsin was eluted with a competing peptide representing the last 18 amino acids of rhodopsin in the latter buffer for 1 hour.
All the opsin regeneration and competition assays were performed under dim red light in a Cary 50 spectrophotometer (Varian) equipped with temperature control. 25 μM purified WT opsin was mixed with 50 μM 11-cis retinal and scanned every two minutes in the range of 250-650 nm until no more rhodopsin was regenerated. Similarly opsin was mixed with compound SN10011 (2 or 5 mM) and allowed to sit for 10 minutes on ice. […] The reactions were conducted in 100 μl total volume where the compounds were provided in 2 μl solution to 98 μl opsin solution. The temperature was maintained at 20° C.

[6] = in the presence of 11-cis-retinal

SMILES: CCCCCCCCCCCCCCCC(=O)OC/C=C(C)/C=C/C=C(C)/C=C/C1=C(C)CCCC1(C)C [vitamin A palmitate]
changes in retinal degeneration on treatment (P347S (Class I) mice): no significant changes
decrease in outer nuclear layer (ONL) thickness in treated animals (T17M (Class II) mice): 24%
decrease in the rate of decline in electroretinogram (ERG) a- and b-wave amplitudes (T17M (Class II) mice): 40-45%

SMILES: Nn1nnc2ccccc21 [NSC 114498, 1H-1,2,3-benzotriazol-1-amine]
% Increase in P23H Yield (Table 2) (P23H opsin [1]): 30 ± 6%

% Increase in P23H Yield (Table 2) (P23H opsin [1]): 20 ± 5%
SMILES: N#Cc1ccc2c(c1)OCO2 [NSC 27009, 3,4-Methylenedioxybenzonitrile]

SMILES: O=[PH](O)c1ccccc1 [Compound 3, phenyl-phosphinic acid]
% Increase in P23H Yield (Table 2) (P23H opsin [1]): 40 ± 3%
% Increase in P23H Yield (Table 1) (P23H opsin [1]): 32%

SMILES: CC1=C(/C=C/C(C)=C/C=C/C(C)=C/C=O)C(C)(C)CCC1 [11-cis-retinal, reference compound]
increase in yield of total opsin (P23H opsin [2]; [6]): 2.4 fold
yield of folded rhodopsin (P23H opsin [2]; [6]): 2.6 fold
effectiveness of 11-cis-retinal relative to β-ionone in increasing cellular yields of P23H rhodopsin (P23H opsin [1]): about 2 fold
increase in P23H pigment over control (P23H opsin [1]): 5 fold

SMILES: N#Cc1cn(Cc2ccco2)c(=O)[nH]c1=O [Compound 2, 1-furan-2-ylmethyl-2,4-dioxo-1,2,3,4-tetrahydro-pyrimidine-5-carbonitrile]
% Increase in P23H Yield (Table 2) (P23H opsin [1]): 40 ± 7%
% Increase in P23H Yield (Table 1) (P23H opsin [1]): 43%

SMILES: Cc1cc([N+](=O)[O-])ccn1 [Compound 4, 2-methyl-4-nitro-pyridine]
% Increase in P23H Yield (Table 2) (P23H opsin [1]): 25 ± 8%
% Increase in P23H Yield (Table 1) (P23H opsin [1]): 24%

increase in yield of total opsin relative to no compound (P23H opsin [2]; P23H cells, β-ionone): 30%
increase in P23H pigment over control (P23H opsin [1]): 2.5 fold
SMILES: CC(=O)/C=C/C1=C(C)CCCC1(C)C [β-ionone]
formation of a 500 nm absorbing pigment with purified WT opsin (WT opsin [3]): does not form a light absorbing pigment; also recorded: did not form a 500 nm absorbing pigment; also recorded: no 500 nm absorbing pigment was formed
pigment from P23H HEK cells treated with compound, purified without 11-cis-retinal treatment (P23H opsin [4]): No pigment was detected; also recorded: No pigment was observed; also recorded: No pigment was generated
inhibition of opsin regeneration (pigment formation with 11-cis-retinal), in words (WT opsin [5]): inhibited opsin regeneration in a dose dependent manner

SMILES: CC(C)N(CC#N)C(C)C [Compound 6, diisopropylaminoacetonitrile]
% Increase in P23H Yield (Table 2) (P23H opsin [1]): 25 ± 3%
% Increase in P23H Yield (Table 1) (P23H opsin [1]): 28%

SMILES: O=C1NC(CCO)C(=O)NC1CCO (centres unmarked) [Compound 5, 3,6-bis-(2-hydroxyethy)-piperazine-2,5-dione]
% Increase in P23H Yield (Table 2) (P23H opsin [1]): 30 ± 10%
% Increase in P23H Yield (Table 1) (P23H opsin [1]): 15%

% Increase in P23H Yield (Table 2) (P23H opsin [1]): 40 ± 9%
SMILES: Cn1cc(C(N)=O)ccc1=N [NSC 66688, 6-imino-1-methyl-1,6-dihydro-3-pyridinecarboxamine]

% Increase in P23H Yield (Table 2) (P23H opsin [1]): 29 ± 5%
SMILES: Oc1ccccc1C=Nn1cnnc1 [NSC 121968, 4-Salicylideneamino-1,2,4-triazol]

SMILES: CC(=O)c1c(C)n[nH]c1C [Compound 1, 1-(3,5-dimethyl-1H-pyrazol-4-yl)ethanone]
formation of a 500 nm absorbing pigment with purified WT opsin (WT opsin [3]; listed as SN10011): No pigment was formed; also recorded: No 500 nm absorbing pigment was generated
% Increase in P23H Yield (Table 2) (P23H opsin [1]): 30 ± 5%
increase in the yield of folded P23H rhodopsin (P23H opsin [1]): 30%
% Increase in P23H Yield (Table 1) (P23H opsin [1]): 31%
yield of folded P23H rhodopsin, in words (P23H opsin [1]): increased yield of folded rhodopsin
inhibition of opsin regeneration (pigment formation with 11-cis-retinal), in words (WT opsin [5]; listed as SN10011): significant effect on inhibition of pigment formation; also recorded: inhibited

SMILES: C[C@@H]1CCC[C@H](C)C1 [cis-1,3-dimethylcyclohexane]
increase in the yield of folded P23H rhodopsin (P23H opsin [1]): 15%
yield of folded P23H rhodopsin, in words (P23H opsin [1]): increased yield of folded P23H rhodopsin
inhibition of opsin regeneration (pigment formation with 11-cis-retinal), in words (WT opsin [5]): much weaker inhibitor of opsin regeneration
